Assay results: US20210045385A1, “PYRIDAZINONE-SUBSTITUTED KETOXIMES AS HERBICIDES” (FMC Corporation, priority 2018, published 2021)

How the values were obtained:
Assay type in all cases: in vivo
[1] = system: blackgrass (Alopecurus myosuroides); experiment: Test A postemergence, visual plant response rating
Outline: (§1)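 Preemergence: seeds in loam/sand blend given directed soil spray of compound in non-phytotoxic solvent with surfactant. Postemergence: plants 2–10 cm, one- to two-leaf stage, sprayed with same formulation. Visual injury rated vs untreated controls after ~10 days in greenhouse, 0 (no effect) to 100 (complete control).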

[2] = system: Italian ryegrass (Lolium multiflorum); experiment: Test A postemergence, visual plant response rating
Outline: as §1

[3] = system: ragweed (common ragweed, Ambrosia elatior); experiment: Test A postemergence, visual plant response rating
Outline: as §1

[4] = system: galium (catchweed bedstraw, Galium aparine); experiment: Test A postemergence, visual plant response rating
Outline: as §1

[5] = system: wheat (Triticum aestivum); experiment: Test A postemergence, visual plant response rating
Outline: as §1

kochia (Kochia scoparia) [6] = experiment: Test A postemergence, visual plant response rating
Outline: as §1

corn (Zea mays) = experiment: Test A postemergence, visual plant response rating
Outline: as §1

[7] = system: barnyardgrass (Echinochloa crus-galli); experiment: Test A postemergence, visual plant response rating
Outline: as §1

[8] = system: pigweed (Amaranthus retroflexus); experiment: Test A postemergence, visual plant response rating
Outline: as §1

[9] = system: foxtail, giant (giant foxtail, Setaria faberii); experiment: Test A postemergence, visual plant response rating
Outline: as §1

[10] = system: Italian ryegrass (Lolium multiflorum); experiment: Test A preemergence, visual plant response rating
Outline: as §1

[11] = system: ragweed (common ragweed, Ambrosia elatior); experiment: Test A preemergence, visual plant response rating
Outline: as §1

kochia (Kochia scoparia) [12] = experiment: Test A preemergence, visual plant response rating
Outline: as §1

[13] = system: barnyardgrass (Echinochloa crus-galli); experiment: Test A preemergence, visual plant response rating
Outline: as §1

[14] = system: pigweed (Amaranthus retroflexus); experiment: Test A preemergence, visual plant response rating
Outline: as §1

[15] = system: foxtail, giant (giant foxtail, Setaria faberii); experiment: Test A preemergence, visual plant response rating
Outline: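 Ratings 0–100 (100 = complete control), visual, vs untreated controls at ~10 days. Application pre- or postemergence; solvent mixture with surfactant; loam/sand medium.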

rice (Oryza sativa) = experiment: Test B flooded paddy test, visual plant response rating; settings: 250 g ai/ha, Flood, applied to paddy water, 2-leaf stage, evaluated after 13 to 15 days
Outline: (§2)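 Flooded-pot treatment: water 3 cm over the soil, chemical delivered into that water, depth unchanged for the duration. Assessed by eye versus controls following 13–15 greenhouse days; plants were at 2 leaves when dosed.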

[16] = system: sedge, umbrella (small-flower umbrella sedge, Cyperus difformis); experiment: as above; settings: 250 g ai/ha, Flood, applied to paddy water, 2-leaf stage, evaluated after 13 to 15 days
Outline: as §2

[17] = system: ducksalad (Heteranhera limosa); experiment: as above; settings: 250 g ai/ha, Flood, applied to paddy water, 2-leaf stage, evaluated after 13 to 15 days
Outline: as §2

[18] = system: barnyardgrass (Echinochloa crus-galli); experiment: as above; settings: 250 g ai/ha, Flood, applied to paddy water, 2-leaf stage, evaluated after 13 to 15 days
Outline: as §2

[19] = 500 g ai/ha, postemergence, 0 is no effect, 100 is complete control
[20] = Postemergence, 125 g ai/ha, 0 to 100 scale (0 no effect, 100 complete control)
[21] = 125 g ai/ha, preemergence, 0 to 100 scale, 0 no effect, 100 complete control
[22] = 500 g ai/ha Preemergence, approx. 10 days

C=CCc1ccccc1C(=NOC)c1c(O)c(C)nn(C)c1=O [Compound 121]
0: Corn plant response rating (corn (Zea mays); [20]) | Barnyardgrass plant response rating [7, 20] | Kochia plant response rating (kochia (Kochia scoparia) [12]; [21]) | Barnyardgrass plant response rating [13, 21] | Plant response rating, Rice (0 to 100 scale, 0 is no effect, 100 is complete control) (rice (Oryza sativa)) | Plant response rating, Sedge, Umbrella (0 to 100 scale, 0 is no effect, 100 is complete control) [16] | Plant response rating, Ducksalad (0 to 100 scale, 0 is no effect, 100 is complete control) [17] | Plant response rating, Barnyardgrass (0 to 100 scale, 0 is no effect, 100 is complete control) [18]
80: Foxtail, Giant plant response rating (0 to 100 scale) [15, 22]
40: Ragweed plant response rating [3, 20] | Wheat plant response rating (0 to 100 scale) [5, 19] | Kochia plant response rating (kochia (Kochia scoparia) [6]; [20])
90: Ryegrass, Italian plant response rating (0 to 100 scale) [2, 19] | Galium plant response rating (0 to 100 scale) [4, 19] | Pigweed plant response rating (0 to 100 scale) [14, 22]
60: Ryegrass, Italian plant response rating [2, 20] | Galium plant response rating [4, 20] | Kochia plant response rating (0 to 100 scale) (kochia (Kochia scoparia) [6]; [19]) | Foxtail, Giant plant response rating (0 to 100 scale) [9, 19]
20: Foxtail, Giant plant response rating [9, 20] | Barnyardgrass plant response rating (0 to 100 scale) [13, 22]
70: Blackgrass plant response rating (0 to 100 scale) [1, 19] | Ragweed plant response rating (0 to 100 scale) [3, 19] | Barnyardgrass plant response rating (0 to 100 scale) [7, 19] | Pigweed plant response rating (0 to 100 scale) [8, 19]
100: Ryegrass, Italian plant response rating (0 to 100 scale) [10, 22]
50: Pigweed plant response rating [8, 20] | Ryegrass, Italian plant response rating [10, 21] | Ragweed plant response rating (0 to 100 scale) [11, 22]
10: Corn plant response rating (0 to 100 scale) (corn (Zea mays); [19]) | Ragweed plant response rating [11, 21] | Pigweed plant response rating [14, 21] | Foxtail, Giant plant response rating [15, 21]
30: Blackgrass plant response rating [1, 20] | Wheat plant response rating [5, 20] | Kochia plant response rating (0 to 100 scale) (kochia (Kochia scoparia) [12]; [22])
